Experimental data reported in US12264156B2, “Compounds and pharmaceutical compositions thereof for the treatment of diseases” (GALAPAGOS NV, priority 2018, dated 2025).

Assays:
mouse CIA model = test: Collagen induced arthritis (CIA) model; assay type: in vivo; set-up: key: per paw 0 = none to 4 = maximal; sum of 4 paws, max 16
Procedure: Completed Freund's adjuvant (CFA) and incomplete Freund's adjuvant (IFA) were purchased from Difco. Bovine collagen type II (CII), lipopolysaccharide (LPS), and Enbrel® (etanercept) were obtained from Chondrex (L'Isle d'Abeau, France); Sigma (P4252, L'Isle d'Abeau, France), Whyet (25 mg injectable syringe, France), respectively. All other reagents used were of reagent grade and all solvents were of analytical grade.
DBA1/J mice (male, 7-8 weeks old) were obtained from Charles River Laboratories (Écully, France). Mice were kept on a 12 h light/dark cycle. Temperature was maintained at 22° C., and food and water were provided ad libitum.
One day before the experiment, CII solution (2 mg/mL) was prepared with 0.05 M acetic acid and stored at 4° C. Just before the immunization, equal volumes of adjuvant […] and CII were mixed by a homogenizer in a pre-cooled glass bottle in an ice water bath. Extra adjuvant and prolonged homogenization may be required if an emulsion is not formed. 0.2 mL of the emulsion was injected intradermally at the base of the tail of each mouse on day 1, a second booster intradermal injection (CII solution at 2 mg/mL in […]) was performed on […]. This immunization method was modified from published methods (Jou et al. 2005; Sims et al. 2004).
The therapeutic effects of the compounds were tested in the mouse CIA model. Mice were randomly divided into equal groups and each group contained 10 mice. All mice were immunized on day 1 and boosted on day 21. The negative control group was treated with vehicle (MC 0.5%) and the positive control group with Enbrel® (10 mg/kg, 3× week., sc). A compound of interest was typically tested at 3 doses per os (p.o.). At day 32, randomization between groups was performed with respect with clinical score and animals were therapeutically treated regarding their group until day 47. Body weight and clinical score, were recorded at least twice a week.
Arthritis is scored according to the method of Khachigian 2006, Lin et al 2007 and Nishida et al. 2004 (Khachigian 2006; Lin et al. 2007; Nishida et al. 2004). The swelling of each of the four paws is ranked with the arthritic score as follows: 0-no symptoms; 1-mild, but definite redness and swelling of one type of joint such as the ankle or wrist, or apparent redness and swelling limited to individual digits, regardless of the number of affected digits; 2-moderate redness and swelling of two or more types of joints; 3-severe redness and swelling of the entire paw including digits; 4-maximally inflamed limb with involvement of multiple joints (maximum cumulative clinical arthritis score 16 per animal) (Nishida et al. 2004).

[1] = tested on: IL-23 induced psoriatic-like epidermal hyperplasia; test: Murine model of psoriatic-like epidermal hyperplasia induced by intradermal injections of IL-23; assay type: in vivo, mouse; conditions: 10 mg/kg p.o. b.i.d.
Procedure: Mouse recombinant IL-23, carrier free (Cat #14-8231) is provided by e-Bioscience (Frankfurt, Germany).
Balb/c mice (female, 18-20 g body weight) were obtained from Janvier Labs (Le Genest-Saint-Isle, France). Mice are kept on a 12 h light/dark cycle. Temperature was maintained at 22° C., food and water are provided ad libitum.
The design of the study was adapted from Rizzo H L. et al. (Rizzo et al. 2011). On the first day (D1), the mice were shaved around the two ears. For 4 consecutive days (D1 to D4), the mice received a daily intradermal dose of mouse recombinant IL-23 (1 μg/20 μL in PBS/0.1% BSA) in the right pinna ear and 20 μL of PBS/0.1% BSA in the left pinna ear under anesthesia.
From D1 to D5, mice were dosed with test-compound or with vehicle, 1 h prior IL-23 injection.
The thickness of both ears was measured daily with an automatic caliper. Body weight was assessed at initiation and at sacrifice. On fifth day, 2 h after the last dosing, the mice were sacrificed. The pinnae of the ear were cut, excluding cartilage. The pinnae, placed in a vial containing 1 mL of RNAlater® solution.
There were 8 mice per group. The results were expressed as mean±SEM and statistical analysis was performed using one-way ANOVA followed by Dunnett's post-hoc test versus IL-23 vehicle groups.

COc1cc(-c2cnc3cc(OCCN4CCOCC4)ccn23)cc2c1C(=O)N(CC(F)(F)F)CC2 [Cpd 88, 8-methoxy-6-[7-(2-morpholinoethoxy)imidazo [1,2-a]pyridin-3-yl]-2-(2,2,2-trifluoroethyl)-3,4-dihydroisoquinolin-1-one]
CIA clinical score (mouse CIA model; 10 mg/kg b.i.d. p.o., day 32): 2.7 | CIA clinical score (mouse CIA model; 10 mg/kg b.i.d. p.o., day 33): 3.1 | CIA clinical score (mouse CIA model; 10 mg/kg b.i.d. p.o., day 35): 3.6 | CIA clinical score (mouse CIA model; 10 mg/kg b.i.d. p.o., day 36): 4.1 | CIA clinical score (mouse CIA model; 10 mg/kg b.i.d. p.o., day 39): 4.4 | CIA clinical score (mouse CIA model; 10 mg/kg b.i.d. p.o., day 40): 4.8 | CIA clinical score (mouse CIA model; 10 mg/kg b.i.d. p.o., day 41): 4.5 | CIA clinical score (mouse CIA model; 10 mg/kg b.i.d. p.o., day 42): 4.9 | CIA clinical score (mouse CIA model; 10 mg/kg b.i.d. p.o., day 43): 5.1 | CIA clinical score (mouse CIA model; 10 mg/kg b.i.d. p.o., day 46): 8.0 | CIA clinical score (mouse CIA model; 10 mg/kg b.i.d. p.o., day 47): 7.9 | CIA clinical score (mouse CIA model; 30 mg/kg b.i.d. p.o., day 32): 2.7 | CIA clinical score (mouse CIA model; 30 mg/kg b.i.d. p.o., day 33): 2.7 | CIA clinical score (mouse CIA model; 30 mg/kg b.i.d. p.o., day 35): 3.4 | CIA clinical score (mouse CIA model; 30 mg/kg b.i.d. p.o., day 36): 3.8 | CIA clinical score (mouse CIA model; 30 mg/kg b.i.d. p.o., day 39): 4.5 | CIA clinical score (mouse CIA model; 30 mg/kg b.i.d. p.o., day 40): 4.7 | CIA clinical score (mouse CIA model; 30 mg/kg b.i.d. p.o., day 41): 4.7 | CIA clinical score (mouse CIA model; 30 mg/kg b.i.d. p.o., day 42): 5.2 | CIA clinical score (mouse CIA model; 30 mg/kg b.i.d. p.o., day 43): 4.6 | CIA clinical score (mouse CIA model; 30 mg/kg b.i.d. p.o., day 46): 6.1 | CIA clinical score (mouse CIA model; 30 mg/kg b.i.d. p.o., day 47): 5.4 | CIA clinical score (mouse CIA model; 60 mg/kg b.i.d. p.o., day 32): 2.7 | CIA clinical score (mouse CIA model; 60 mg/kg b.i.d. p.o., day 33): 2.7 | CIA clinical score (mouse CIA model; 60 mg/kg b.i.d. p.o., day 35): 3.1 | CIA clinical score (mouse CIA model; 60 mg/kg b.i.d. p.o., day 36): 2.8 | CIA clinical score (mouse CIA model; 60 mg/kg b.i.d. p.o., day 39): 3.3 | CIA clinical score (mouse CIA model; 60 mg/kg b.i.d. p.o., day 40): 3.0 | CIA clinical score (mouse CIA model; 60 mg/kg b.i.d. p.o., day 41): 2.7 | CIA clinical score (mouse CIA model; 60 mg/kg b.i.d. p.o., day 42): 2.8 | CIA clinical score (mouse CIA model; 60 mg/kg b.i.d. p.o., day 43): 2.3 | CIA clinical score (mouse CIA model; 60 mg/kg b.i.d. p.o., day 46): 2.8 | CIA clinical score (mouse CIA model; 60 mg/kg b.i.d. p.o., day 47): 2.5 | ear thickness compared to IL-23 vehicle group [1]: statistically significant decrease of the ear thickness
